Ends that are not written are not given here.
How the values were obtained:
[1] = ELISA with seronegative / negative control sera (specificity); assay type: binding, human; details: negative serum
Procedure: (§1) Where peptides were to be coated directly, stock solutions of the peptides were diluted in sodium carbonate buffer, pH 9.6 and used to coat polystyrene microtiter plates at a peptide concentration of 2 to 5 micrograms per milliliter for 1 hour at 37° C.
(§2) In cases where biotinylated peptides were to be evaluated, plates were first coated with streptavidin in sodium carbonate buffer, pH 9.6 at a concentration of 3 micrograms per milliliter for 1 hour at 37° C. The plates were then washed to remove excess, unbound protein. A working solution of the biotinylated peptide at 1 microgram per milliliter in sodium carbonate buffer was then added to the wells of the microtiter plate and incubated for 1 hours at 37° C.
(§3) Once the plates had been coated with antigen, any remaining free binding sites on the plastic were blocked with casein. After washing, a dilution of the appropriate antisera, usually 1:100, was added to the wells of the plates and incubated for 1 hour at 37° C.
(§4) After washing to remove unbound material, specific antibody binding was detected by incubating the plates with goat anti-human immunoglobulin antibodies conjugated to the enzyme horseradish peroxidase. Following removal of unbound conjugate by washing, a solution containing H2O2 and 3,3′,5,5′-tetramethylbenzidine was added.
(§5) Reactions were stopped after a suitable interval by addition of sulfuric acid. […] Absorbance measurements were made at a wavelength of 450 nanometers and all data are expressed as an optical density value at this wavelength.
(§6) Unbiotinylated HCV peptide I was coated directly onto the wells of a polystyrene ELISA plate at a concentration of 3 micrograms per milliliter in sodium carbonate buffer, pH 9.6. Biotinylated HCV peptide I was bound to streptavidin-coated wells using a stock solution containing the peptide at a concentration of 1 microgram per milliliter. The resulting plates were then incubated in parallel with a panel of sera from HCV-seropositive donors. […] Two of the sera (8326 and 8244) recognize the biotinylated version of this peptide far better than the unbiotinylated version. The specificity of the antibody reaction is also reflected by the low optical density values obtained for 5 serum samples from uninfected donors (F88, F89, F76, F136, and F6).
To determine how well biotinylated peptides would function in a mixture when bound to streptavidin- or avidin-coated plates, two mixtures were made of the N-terminally biotinylated versions of the HIV-1 peptides TM-HIV-1 (hereabove referred to as 1a.1) and V3-nm (hereabove referred to as 1b.4), the HIV-2 peptide TM-HIV-2 (hereabove referred to as 2a), and the hepatitis C virus peptides II, IX, and XVIII. Mixture A contained each of the six biotinylated peptides at a concentration of 1 microgram per milliliter (6 micrograms per milliliter peptide, total) while in mixture B, each peptide was present at a concentration of 0.1 microgram per milliliter (0.6 microgram per milliliter peptide, total). The individual peptides were coated at a concentration of 1 microgram per milliliter. For purposes of comparison, mixtures A and B were also coated directly onto the wells of a microtiter plate. Samples from HIV-1, HIV-2, and HCV-seropositive donors were tested and compared to sera from seronegative blood donors. A cut-off absorbance value of 0.250 was used to determine whether a reaction was positive or negative. Absorbance values equal or greater than 0.250 were considered positive while absorbance values below this value were considered negative.

[2] = tested on: antibodies in sera from HCV-seropositive donors; test: ELISA with HCV antibody-positive sera (biotinylated peptides on streptavidin- or avidin-coated plates, unbiotinylated peptides coated directly); assay type: binding, human; details: for optical density (450 nm): 20-fold dilution; for PEPTIDE ELISA (O.D.): Table 12, biotinylated 20-mers
Procedure: as §1, §2, §3, §4, §5
The unbiotinylated peptides were adsorbed onto the wells of polystyrene microtiter plates at a concentration of 3 micrograms per milliliter.
The biotinylated peptides were bound at a concentration of 1 microgram per milliliter to streptavidin-coated microtiter plates. Sera known to contain antibodies to these peptides were used for the evaluation and were tested at a 20-fold dilution.
To investigate further the enhanced antibody recognition of biotinylated HCV peptides bound to streptavidin or avidin as compared to direct adsorption on plastic, the influence of peptide coating concentration was investigated. Three peptides (HCV peptides II, XI, and XVI) were coated in concentrations ranging from 10 nanograms per milliliter to 3 micrograms per milliliter in a volume of 200 microliters per microtiter plate well. For direct coating, the unbiotinylated versions of these peptides were used. The biotinylated versions of these peptides were used to coat wells to which streptavidin had previously been adsorbed. Sera known to contain antibodies to these peptides were used at a dilution of 1 to 100 to evaluate the magnitude of antibody binding.
as §6
To determine how well biotinylated peptides would function in a mixture when bound to streptavidin- or avidin-coated plates, two mixtures were made of the N-terminally biotinylated versions of the HIV-1 peptides TM-HIV-1 (hereabove referred to as 1a.1) and V3-nm (hereabove referred to as 1b.4), the HIV-2 peptide TM-HIV-2 (hereabove referred to as 2a), and the hepatitis C virus peptides II, IX, and XVIII. […]

Row | Sequence | optical density (450 nm) ([1]; Table 4D) | optical density (450 nm) ([2]; Table 4D, serum 8241) | optical density (450 nm) ([2]; Table 4D, serum 8242) | optical density (450 nm) ([2]; Table 4D, serum 8243) | optical density (450 nm) ([2]; Table 4D, serum 8247) | optical density (450 nm) ([2]; Table 4D, serum 8248) | optical density (450 nm) ([2]; Table 4D, serum 8250) | optical density (450 nm) ([2]; Table 4D, serum 8271) | optical density (450 nm) ([2]; Table 4D, serum 8272) | optical density (450 nm) ([2]; Table 4D, serum 8273) | optical density (450 nm) ([2]; Table 4D, serum 8274) | optical density (450 nm) ([2]; Table 4D, serum 8275) | optical density (450 nm) ([2]; Table 4D, serum 8276) | optical density (450 nm) ([2]; Table 4D, serum 8277) | PEPTIDE ELISA (O.D.) ([2]; serum 0843) | PEPTIDE ELISA (O.D.) ([2]; serum 8240) | PEPTIDE ELISA (O.D.) ([2]; serum 8241) | PEPTIDE ELISA (O.D.) ([2]; serum 8242) | PEPTIDE ELISA (O.D.) ([2]; serum 8332) | PEPTIDE ELISA (O.D.) ([2]; serum 8339) | also measured
1 | RNTNRRPQDVKFPGGGQIVG [listing 1 of 2 here] | 0.06 | 2.066 | 2.197 | 2.368 | 2.398 | 2.918 | 2.626 | 2.066 | 2.638 | 2.697 | 2.905 | 2.640 | 2.674 | 2.327 | 2.368 | 2.918 | 2.066 | 2.197 | 2.054 | 2.765 | PEPTIDE ELISA (O.D.) ([2]; serum 8350): 2.135; PEPTIDE ELISA (O.D.) ([2]; serum 8377): 2.368; PEPTIDE ELISA (O.D.) ([2]; serum 8378): 2.369; PEPTIDE ELISA (O.D.) ([2]; serum 8388): 2.463
2 | RNTNRRPQDVKFPGGGQIVG [listing 2 of 2 here] | 0.050 | 1.219 | 1.976 | 1.859 | 1.072 | 2.742 | 2.471 | 1.471 | 2.471 | 1.543 | 2.503 | 1.595 | 1.976 | 0.735 |  |  |  |  |  |  | 
3 | SQHLPYIEQGMMLAEQFKQK |  |  |  |  |  |  |  |  |  |  |  |  |  |  | 2.268 | 0.182 | 2.280 | 1.625 | 0.575 | 0.043 | optical density (450 nm) ([1]; Table 4A): 0.095; optical density (450 nm) ([2]; Table 4A, serum 2): 1.971; optical density (450 nm) ([2]; Table 4A, serum 3): 2.086; optical density (450 nm) ([2]; Table 4A, serum 4): 1.976; optical density (450 nm) ([2]; Table 4A, serum 6): 0.518; optical density (450 nm) ([2]; Table 4A, serum 8): 2.624; optical density (450 nm) ([2]; Table 4A, serum 10): 2.321; optical density (450 nm) ([2]; Table 4A, serum 11): 2.378; optical density (450 nm) ([2]; Table 4A, serum 23): 2.503; optical density (450 nm) ([2]; Table 4A, serum 31): 2.104; optical density (450 nm) ([2]; Table 4A, serum 33): 1.857; optical density (450 nm) ([2]; Table 4A, serum 49): 2.180; optical density (450 nm) ([2]; Table 4A, serum 77): 0.159; PEPTIDE ELISA (O.D.) ([2]; serum 8350): 0.623; PEPTIDE ELISA (O.D.) ([2]; serum 8377): 2.227; PEPTIDE ELISA (O.D.) ([2]; serum 8378): 1.449; PEPTIDE ELISA (O.D.) ([2]; serum 8388): 1.018; antibody binding to the 20-mers ([2]; serum 8241): very strong
